Several values for one entry are separate records, joined by “and”; a condition that tells them apart may be missing. Identical values can stand only once.
Assays:
TRPV3-4PM = TRPV3-4PM (Mus musculus, UniProt Q8K424, F625L/F656I/F666Y/V587L)
Protocol: (§1) All channel constructs were expressed in Xenopus laevis oocytes and studied using the two-electrode voltage clamp technique (TEVC) following 1–4 days of incubation after cRNA injection. The animal care and experimental procedures were performed in accordance with the Guide for the Care and Use of Laboratory Animals and were approved by the Animal Care and Use Committee of the National Institute of Neurological Disorders and Stroke (Animal protocol number 1253–17). Oocytes were removed surgically and incubated with agitation for 1 hr in a solution containing (in mM) 82.5 NaCl, 2.5 KCl, 1 MgCl2, 5 HEPES, pH 7.6 (with NaOH), and collagenase (2 mg/ml; Worthington Biochemical, Lakewood, NJ). Defolliculated oocytes were injected with cRNA for each of the constructs and incubated at 17°C in a solution containing (in mM) 96 NaCl, 2 KCl, 1 MgCl2, 1.8 CaCl2, 5 HEPES, pH 7.6 (with NaOH), and gentamicin (50 μg/ml, GIBCO-BRL, Gaithersburg, MD). Oocyte membrane voltage was controlled using an OC-725C oocyte clamp (Warner Instruments, Hamden, CT). Data were filtered at 1–3 kHz and digitized at 20 kHz using pClamp software (Molecular Devices, Sunnyvale, CA) and a Digidata 1440A digitizer (Axon Instruments). Microelectrode resistances were 0.1–1 MΩ when filled with 3 M KCl. For recording TRP channel currents, the external recording solution contained (in mM) 100 KCl, 10 HEPES, pH 7.6 (with KOH). Experiments were performed at room temperature (~22°C), except as indicated otherwise. […] Current time courses were obtained by stepping membrane voltage every 2 s from a holding potential of 0 mV to either −60 or +60 mV for 100 ms, and plotting the mean steady-state current at the end of each voltage step as a function of total recording time. I-V relations were obtained similarly, but voltage was stepped every 2 s to a different value, in 10 mV increments and starting at −60 mV.

TRPV3-A606V = TRPV3-A606V (Mus musculus, UniProt Q8K424, A606V)
TRPV3-A606V, sequence (Q8K424 whole entry A606V): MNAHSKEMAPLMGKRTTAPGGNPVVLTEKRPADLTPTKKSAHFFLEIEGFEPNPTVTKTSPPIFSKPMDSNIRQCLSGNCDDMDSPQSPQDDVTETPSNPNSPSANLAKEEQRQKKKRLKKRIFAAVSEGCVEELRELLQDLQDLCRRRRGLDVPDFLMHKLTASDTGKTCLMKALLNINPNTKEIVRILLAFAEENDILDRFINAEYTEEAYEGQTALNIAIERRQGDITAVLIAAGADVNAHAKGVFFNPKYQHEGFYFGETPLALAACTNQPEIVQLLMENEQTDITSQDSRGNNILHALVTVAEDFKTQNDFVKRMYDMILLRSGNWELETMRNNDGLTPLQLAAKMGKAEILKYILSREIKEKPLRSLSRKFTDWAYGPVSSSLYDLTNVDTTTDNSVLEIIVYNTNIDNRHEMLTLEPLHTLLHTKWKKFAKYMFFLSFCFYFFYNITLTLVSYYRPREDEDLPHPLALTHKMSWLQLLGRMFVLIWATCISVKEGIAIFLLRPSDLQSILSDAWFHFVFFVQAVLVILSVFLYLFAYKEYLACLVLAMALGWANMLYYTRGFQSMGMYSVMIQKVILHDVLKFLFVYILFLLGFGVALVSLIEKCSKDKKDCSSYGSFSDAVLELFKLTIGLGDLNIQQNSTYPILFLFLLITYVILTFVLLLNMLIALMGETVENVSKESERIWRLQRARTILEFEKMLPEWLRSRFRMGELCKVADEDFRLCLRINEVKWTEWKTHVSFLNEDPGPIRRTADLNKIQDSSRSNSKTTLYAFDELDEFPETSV
Protocol: as §1

TRPV3-V587L = TRPV3-V587L (Mus musculus, UniProt Q8K424, V587L); conditions: -60 mV
TRPV3-V587L, sequence (Q8K424 whole entry V587L): as the sequence (Q8K424 whole entry A606V) above, with V587L, V606A counted along it
Protocol: as §1

TRPV3-6M + V587L = target: T1, TRPV3-6M + V587L (Mus musculus, UniProt Q8K424, A560T/F522S/H523E/L557M/Q580E/V587L/W521Y); assay: Two-electrode voltage clamp, TRPV3-6M + V587L, RTx concentrations; type: cell-based
T1 construct: expressed in transfected cells; host or cells: Xenopus laevis oocytes
T1 sequence (Q8K424 1-791 W521Y/F522S/H523E/L557M/A560T/Q580E/V587L): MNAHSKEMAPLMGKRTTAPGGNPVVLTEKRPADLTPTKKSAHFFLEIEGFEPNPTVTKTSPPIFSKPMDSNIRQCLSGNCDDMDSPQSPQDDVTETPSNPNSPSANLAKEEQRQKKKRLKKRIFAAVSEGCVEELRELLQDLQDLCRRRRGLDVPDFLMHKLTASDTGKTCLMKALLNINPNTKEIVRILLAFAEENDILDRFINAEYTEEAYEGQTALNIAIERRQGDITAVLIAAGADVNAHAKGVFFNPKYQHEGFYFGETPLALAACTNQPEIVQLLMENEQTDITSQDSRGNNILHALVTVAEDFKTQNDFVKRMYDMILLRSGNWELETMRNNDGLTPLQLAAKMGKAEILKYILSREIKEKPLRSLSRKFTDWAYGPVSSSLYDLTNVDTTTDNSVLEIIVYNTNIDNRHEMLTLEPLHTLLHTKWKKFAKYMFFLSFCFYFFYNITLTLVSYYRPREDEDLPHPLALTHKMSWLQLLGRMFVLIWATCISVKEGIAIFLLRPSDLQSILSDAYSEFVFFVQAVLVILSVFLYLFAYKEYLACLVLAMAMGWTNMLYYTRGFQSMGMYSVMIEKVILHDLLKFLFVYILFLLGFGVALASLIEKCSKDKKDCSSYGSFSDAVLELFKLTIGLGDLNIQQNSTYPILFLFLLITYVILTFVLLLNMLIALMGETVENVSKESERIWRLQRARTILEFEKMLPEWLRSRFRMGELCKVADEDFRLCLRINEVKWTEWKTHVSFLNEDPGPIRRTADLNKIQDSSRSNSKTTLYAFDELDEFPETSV
Protocol: All channel constructs were expressed in Xenopus laevis oocytes and studied using the two-electrode voltage clamp technique (TEVC) following 1–4 days of incubation after cRNA injection. The animal care and experimental procedures were performed in accordance with the Guide for the Care and Use of Laboratory Animals and were approved by the Animal Care and Use Committee of the National Institute of Neurological Disorders and Stroke (Animal protocol number 1253–17). Oocytes were removed surgically and incubated with agitation for 1 hr in a solution containing (in mM) 82.5 NaCl, 2.5 KCl, 1 MgCl2, 5 HEPES, pH 7.6 (with NaOH), and collagenase (2 mg/ml; Worthington Biochemical, Lakewood, NJ). Defolliculated oocytes were injected with cRNA for each of the constructs and incubated at 17°C in a solution containing (in mM) 96 NaCl, 2 KCl, 1 MgCl2, 1.8 CaCl2, 5 HEPES, pH 7.6 (with NaOH), and gentamicin (50 μg/ml, GIBCO-BRL, Gaithersburg, MD). Oocyte membrane voltage was controlled using an OC-725C oocyte clamp (Warner Instruments, Hamden, CT). Data were filtered at 1–3 kHz and digitized at 20 kHz using pClamp software (Molecular Devices, Sunnyvale, CA) and a Digidata 1440A digitizer (Axon Instruments). Microelectrode resistances were 0.1–1 MΩ when filled with 3 M KCl. For recording TRP channel currents, the external recording solution contained (in mM) 100 KCl, 10 HEPES, pH 7.6 (with KOH). […]

rat TRPV2-4M = target: T2, rat TRPV2-4M (Rattus norvegicus, UniProt Q9WUD2, F472S/L507M/L510T/Q530E); parameters: method as in Zhang et al., 2016; conditions: ref Zhang et al., 2016; cited from earlier work
T2 construct: expressed in transfected cells; host or cells: Xenopus laevis oocytes
T2 sequence (Q9WUD2 1-761 F472S/L507M/L510T/Q530E): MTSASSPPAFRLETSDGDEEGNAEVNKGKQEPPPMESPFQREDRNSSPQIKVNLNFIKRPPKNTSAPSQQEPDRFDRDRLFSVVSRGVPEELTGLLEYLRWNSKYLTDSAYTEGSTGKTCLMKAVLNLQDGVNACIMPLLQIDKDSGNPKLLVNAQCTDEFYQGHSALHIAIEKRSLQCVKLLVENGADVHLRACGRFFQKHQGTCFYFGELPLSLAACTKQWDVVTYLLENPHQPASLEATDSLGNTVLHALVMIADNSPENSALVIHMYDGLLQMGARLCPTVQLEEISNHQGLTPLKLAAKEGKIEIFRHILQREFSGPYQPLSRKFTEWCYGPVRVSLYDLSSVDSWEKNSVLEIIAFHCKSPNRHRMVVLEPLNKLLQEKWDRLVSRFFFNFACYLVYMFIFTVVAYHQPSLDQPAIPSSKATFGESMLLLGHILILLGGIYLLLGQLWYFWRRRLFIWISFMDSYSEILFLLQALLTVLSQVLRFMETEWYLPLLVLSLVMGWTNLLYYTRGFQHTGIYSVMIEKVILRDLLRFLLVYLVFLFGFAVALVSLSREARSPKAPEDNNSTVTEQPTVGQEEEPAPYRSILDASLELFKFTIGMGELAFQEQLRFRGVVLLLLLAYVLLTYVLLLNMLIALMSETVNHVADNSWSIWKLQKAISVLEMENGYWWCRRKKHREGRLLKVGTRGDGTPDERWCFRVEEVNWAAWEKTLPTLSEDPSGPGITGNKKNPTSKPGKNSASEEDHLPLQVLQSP

TRPV1 = tested on: TRPV1; parameters: method as in Zhang et al., 2016; conditions: ref Zhang et al., 2016; cited from earlier work

TRPV3-4PM, sequence (Q8K424 whole entry V587L/F625L/F656I/F666Y): as the sequence (Q8K424 whole entry A606V) above, with V587L, V606A, F625L, F656I, F666Y counted along it

SMILES	s (slope) of Hill fit, 2-APB concentration-response (TRPV3-4PM; -60 mV)	shift in the apparent affinity for 2-APB (TRPV3-4PM; relative to WT TRPV3)	s (slope) of Hill fit, 2-APB concentration-response (TRPV3-A606V; -60 mV)	EC50 (TRPV3-A606V; read-out: apparent affinity (EC50) for activation by 2-APB, -60 mV, room temperature, Hill fit) [µM]	increase in the apparent affinity for 2-APB (TRPV3-A606V; relative to WT TRPV3)	s (slope) of Hill fit, 2-APB concentration-response (TRPV3-V587L)	EC50 (TRPV3-V587L; read-out: apparent affinity (EC50) for activation by 2-APB, room temperature, Hill fit) [µM]	dissociation of RTx (TRPV3-6M + V587L)	saturating concentration of RTx (rat TRPV2-4M) [nM]	saturating concentration of RTx (TRPV1) [nM]
NCCOB(c1ccccc1)c1ccccc1 [2-APB, 2-aminoethoxydiphenyl borate]	1.84	~ 2 fold and 2 fold	2.72	132 ± 7	~ 3.5 fold and 3.5 fold	2.28	443 ± 13			
C=C(C)[C@]12C[C@@H](C)[C@@]34O[C@](Cc5ccccc5)(O[C@@H]1[C@@H]3C=C(COC(=O)Cc1ccc(O)c(OC)c1)C[C@]1(O)C(=O)C(C)=C[C@@H]41)O2 [RTx, resiniferatoxin]								exceedingly slow	100	100

Source: PMC6333442, “Conserved allosteric pathways for activation of TRPV3 revealed through engineering vanilloid-sensitivity” (eLife, 2019)
